In patent US20240368168A1, “SARM1 ENZYME ACTIVITY INHIBITOR AND APPLICATION THEREOF” (ARTIVILA BIOPHARMA, priority 2021, published 2024):
Structures can show the parent of a compound that is named as a salt.

Target: T1, dN-SARM1 protein (Homo sapiens, UniProt Q6SZW1)
T1 construct: the N-terminal mitochondrial localization signal peptide of SARM1 was removed
T1 sequence (Q6SZW1 28-724): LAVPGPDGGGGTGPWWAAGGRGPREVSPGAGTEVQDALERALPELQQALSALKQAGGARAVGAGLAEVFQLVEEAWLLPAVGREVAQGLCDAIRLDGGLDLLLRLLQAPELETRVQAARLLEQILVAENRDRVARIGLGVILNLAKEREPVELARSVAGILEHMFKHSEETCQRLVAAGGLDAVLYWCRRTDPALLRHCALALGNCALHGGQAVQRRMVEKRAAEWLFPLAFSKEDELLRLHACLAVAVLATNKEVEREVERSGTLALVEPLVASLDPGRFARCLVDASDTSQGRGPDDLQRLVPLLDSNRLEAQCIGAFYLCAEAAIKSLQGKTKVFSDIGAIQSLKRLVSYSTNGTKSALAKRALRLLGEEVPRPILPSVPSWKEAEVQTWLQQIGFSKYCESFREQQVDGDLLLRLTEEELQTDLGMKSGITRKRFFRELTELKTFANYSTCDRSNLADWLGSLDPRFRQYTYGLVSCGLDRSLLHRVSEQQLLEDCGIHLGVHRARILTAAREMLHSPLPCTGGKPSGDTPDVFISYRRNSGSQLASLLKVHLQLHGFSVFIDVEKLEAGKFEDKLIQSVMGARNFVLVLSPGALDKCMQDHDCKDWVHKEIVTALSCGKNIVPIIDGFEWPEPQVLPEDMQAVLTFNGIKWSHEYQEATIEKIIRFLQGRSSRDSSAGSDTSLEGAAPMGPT
Test: In vitro biochemical assay for inhibiting SARM1 enzymatic activity (IC50), PC6 fluorescence method
Settings: 50 μM NAD, 50 μM PC6, 50 μM NMN activator
Method: 200 μM compound was first added to a solution of 0.05 μg/ml dN-SARM1 in 50 mM Tris-HCl (pH 7.5). Half of the mixture was added to an equal volume of a solution of 0.05 μg/ml dN-SARM1 in 50 mM Tris-HCl (pH 7.5) and mixed. The drug was diluted 6 times in this manner, with the final concentrations being 200, 100, 50, 25, 12.5, 6.25, 3.125 μM, or 200, 50, 12.5, 3.125, 0.78, 0.195, 0.049 μM, respectively. The protein without inhibitors added, being used as control group, was incubated at room temperature for 10 minutes.
50 μM NAD, 50 μM PC6 as substrate and 50 μM NMN as activator were added to the dN-SARM1 protein incubated with the inhibitor and reacted for 30 minutes at room temperature. The concentration of each component was the final concentration in the reaction system.
During the reaction, PC6 fluorescence spectrum dynamics were detected by a microplate reader, wherein the excitation wavelength and emission wavelength for detection were 390 nm and 520 nm, respectively. Finally, the reaction rate was used to express the activity of the protein, and the half inhibitory concentration was calculated. The higher the reaction rate, the stronger the protein activity, and the lower the inhibitory efficiency of the compound.
The dose curve of compounds inhibiting SARM1 enzymatic activity was determined using the above method.

| IC50 | SMILES |
| --- | --- |
| < 1000 nM | CN(C(=O)OC(C)(C)C)c1ccc2ncc(-c3cncc4ccccc34)n2c1 [Compound 268] |
| 1000 to 10000 nM | CNc1ccc2ncc(-c3ccncc3)n2c1 [Compound 74] |
| < 1000 nM | CC(=O)N(C)c1ccc2ncc(-c3ccccc3)n2c1 [Compound 42] |
| 1000 to 10000 nM | CNc1ccc2ncc(-c3cccc(NC(=O)COCc4ccccc4)c3)n2c1 [Compound 250] |
| < 1000 nM | CN(C(=O)OC(C)(C)C)c1ccc2ncc(-c3ccc4c(c3)CNC4=O)n2c1 [Compound 265] |
| 1000 to 10000 nM | CC(C)(C)OC(=O)N1CCOCCN(C(=O)OC(C)(C)C)S(=O)(=O)c2cccc(c2)-c2cnc3ccc1cn23 [Compound 80, di-tert-butyl(E)-7-oxa-3-thio-4,10-diaza-1(3,6)-imidazol[1,2-a]pyridin-2(1,3)-phenylcyclodecane-4,10-dicarboxylate 3,3-dioxide] |
| 1000 to 10000 nM | CNc1ccc2ncc(-c3ccccc3C(=O)NC3CCOCC3)n2c1 [Compound 177] |
| 1000 to 10000 nM | CNc1ccc2ncc(-c3ccnnc3)n2c1 [Compound 186] |
| 1000 to 10000 nM | CN(C(=O)OC(C)(C)C)c1ccc2ncc(C3=CCCCC3)n2c1 [Compound 83] |
| 1000 to 10000 nM | CNc1ccc2ncc(-c3cccc(-n4cccc4)c3)n2c1 [Compound 200] |
| 1000 to 10000 nM | COC(=O)c1ccn2c(-c3ccccc3)cnc2c1 [Compound 23] |
| < 1000 nM | CN(C(=O)C1CC1)c1ccc2ncc(-c3cccc(N)c3)n2c1 [Compound 306] |
| 1000 to 10000 nM | CN(C(=O)OC(C)(C)C)c1ccc2ncc(-c3cc4ccn(C)c4cn3)n2c1 [Compound 295] |
| < 1000 nM | CNc1ccc2ncc(-c3cccc(NC(=O)c4ccccc4)n3)n2c1 [Compound 172] |
| 1000 to 10000 nM | CNc1ccc2ncc(-c3cncc4ccccc34)n2c1 [Compound 269] |
| < 1000 nM | CN(C(=O)OC(C)(C)C)c1ccc2ncc(-c3cccc4cnn(C)c34)n2c1 [Compound 267] |
| 1000 to 10000 nM | CNc1ccc2ncc(-c3ccccc3C(C)NC(=O)C3CCOCC3)n2c1 (stereo not shown) [Compound 191] |
| 1000 to 10000 nM | CN(C(=O)C(C)(C)C)c1ccc2ncc(-c3cccc(N)c3)n2c1 [Compound 302] |
| 1000 to 10000 nM | c1cc(-c2cnc3ccc(-n4cccn4)cn23)c2cc[nH]c2c1 [Compound 202, 3-(1H-indol-4-yl)-6-(1H-pyrazol-1-yl)imidazo[1,2-a]pyridine] |
| < 1000 nM | CNc1ccc2ncc(-c3cccc(NC(=O)COCCOCCOCC(=O)N[C@H](C(=O)N4C[C@H](O)C[C@H]4C(=O)NCc4ccc(-c5scnc5C)cc4)C(C)(C)C)c3)n2c1 [Compound 120, (2S,4R)-1-((S)-2-(tert-butyl)-14-((3-(6-(methylamino)imidazo[1,2-a]pyridin-3-yl)phenyl)amino)-4,14-dioxo-6,9,12-trioxa-3-azatetradecanoyl)-4-hydroxy-N-(4-(4-methylthiazol-5-yl)benzyl)pyrrolidin-2-carboxamide hydrochloride] |
| < 1000 nM | CN(C(=O)OC(C)(C)C)c1ccc2ncc(-c3cccc(-n4cccn4)c3)n2c1 [Compound 178] |
| 1000 to 10000 nM | CNc1ccc2ncc(-c3ccccn3)n2c1 [Compound 76] |
| 1000 to 10000 nM | CNc1ccc2ncc(-c3ccc4[nH]ccc4n3)n2c1 [Compound 197] |
| 1000 to 10000 nM | CNc1ccc2ncc(-c3cnc(N)nc3)n2c1 [Compound 195] |
| 1000 to 10000 nM | CNc1ccc2ncc(C3CCCc4ncccc43)n2c1 (stereo not shown) [Compound 312] |

More lines, now with the values behind:

| SMILES | IC50 |
| --- | --- |
| CNC(=O)c1ccccc1-c1cnc2ccc(N(C)C(=O)OC(C)(C)C)cn12 [Compound 174] | < 1000 nM |
| CN(C(=O)OC(C)(C)C)c1ccc2ncc(-c3ccnc4[nH]ccc34)n2c1 [Compound 184] | 1000 to 10000 nM |
| CNc1ccc2ncc(-c3cccc(S(=O)(=O)N(C)C(=O)OC(C)(C)C)c3)n2c1 [Compound 59, tert-butyl methyl ((3-(6-(methylamino)imidazo[1,2-a]pyridin-3-yl)phenyl)sulfonyl)carbamate] | 1000 to 10000 nM |
| c1cc(-c2cnc3ccc(N4CCOCC4)cn23)cc(N2CCOCC2)c1 [Compound 226] | 1000 to 10000 nM |
| CN(C)c1ccc2ncc(-c3cccc4c3CNC4=O)n2c1 [Compound 223] | < 1000 nM |
| CNc1ccc2ncc(-c3cccc4c3CNC4=O)n2c1 [Compound 257] | < 1000 nM |
| CN(C(=O)C1CC1)c1ccc2ncc(I)n2c1 [Compound 305] | < 1000 nM |
| CN1Cc2c(cccc2-c2cnc3ccc(N(C)C(=O)OC(C)(C)C)cn23)C1=O [Compound 286] | 1000 to 10000 nM |
| O=C(COCCOCc1ccccc1)Nc1cccc(-c2cnc3ccc(NCCCc4ccccc4)cn23)c1 [Compound 218] | 1000 to 10000 nM |
| CN(C(=O)OC(C)(C)C)c1ccc2ncc(-c3cccc4c3ccn4C)n2c1 [Compound 285] | 1000 to 10000 nM |
| CNc1ccc2ncc(-c3ccc4ccncc4c3)n2c1 [Compound 271] | < 1000 nM |
| CC(C)(C)C(=O)Nc1ccc2ncc(I)n2c1 [Compound 304] | 1000 to 10000 nM |
| CNc1ccc2ncc(-c3cccc(-n4cccn4)c3)n2c1 [Compound 179] | < 1000 nM |
| CNc1ccc2ncc(C3CCCCC3)n2c1 [Compound 85, 3-cyclohexyl-N-methylimidazo[1,2-a]pyridin-6-amine] | 1000 to 10000 nM |
| CNc1ccc2ncc(-c3cccc(CNC(=O)C4CCOCC4)c3)n2c1 [Compound 242] | < 1000 nM |
| CC(=O)N(C)c1ccc2ncc(-c3cccs3)n2c1 [Compound 43] | 1000 to 10000 nM |
| Ic1cnc2ccc(-n3cccc3)cn12 [Compound 203] | < 1000 nM |
| CNc1ccc2ncc(-c3ccnc4[nH]ccc34)n2c1 [Compound 166] | < 1000 nM |
| CN(C(=O)OC(C)(C)C)c1ccc2ncc(-c3ccc4ccncc4c3)n2c1 [Compound 270] | < 1000 nM |
| CN(C(=O)OC(C)(C)C)c1ccc2ncc(-c3ccc4cc[nH]c4n3)n2c1 [Compound 297] | 1000 to 10000 nM |

| SMILES | IC50 |
| --- | --- |
| CC(=O)N(C)c1ccc2ncc(-c3cccc(C(=O)NC4CCOCC4)c3)n2c1 [Compound 309] | 1000 to 10000 nM |
| COCCOCCNC(=O)c1cccc(-c2cnc3ccc(N(C)C(C)=O)cn23)c1 [Compound 310] | 1000 to 10000 nM |
| CNc1ccc2ncc(-c3cccc4c(I)n[nH]c34)n2c1 [Compound 210, 3-(3-iodo-1H-indazol-7-yl)-N-methylimidazol[1,2-a]pyridin-6-amine hydrochloride] | 1000 to 10000 nM |
| CN(C(=O)OC(C)(C)C)c1ccc2ncc(-c3ccc4[nH]ccc4n3)n2c1 [Compound 196] | 1000 to 10000 nM |
| CN(C)CCN1Cc2c(cccc2-c2cnc3ccc(N(C)C(=O)OC(C)(C)C)cn23)C1=O [Compound 291] | 1000 to 10000 nM |
| CNc1ccc2ncc(-c3ccccc3C)n2c1 [Compound 67] | 1000 to 10000 nM |
| CN(C(=O)OC(C)(C)C)c1ccc2ncc(-c3ccnc(NC(=O)c4ccccc4)c3)n2c1 [Compound 182] | 1000 to 10000 nM |
| CC(C)(C)OC(=O)N(CCCc1ccccc1)c1ccc2ncc(-c3cccc(NC(=O)C4CCOCC4)c3)n2c1 [Compound 217] | 1000 to 10000 nM |
| COC(=O)c1cccc(-c2cnc3ccc(N(C)C(C)=O)cn23)c1 [Compound 308] | 1000 to 10000 nM |
| COCCNc1cccc(-c2cnc3ccc(N4CCOCC4)cn23)c1 [Compound 232] | 1000 to 10000 nM |
| CNC(=O)c1ccccc1-c1cnc2ccc(NC)cn12 [Compound 176] | 1000 to 10000 nM |
| CNc1ccc2ncc(-c3cccc4cnccc34)n2c1 [Compound 264] | < 1000 nM |
| CN(C(=O)OC(C)(C)C)c1ccc2ncc(-c3cccc4cnccc34)n2c1 [Compound 263] | < 1000 nM |
| O=C(Nc1cccc(-c2cnc3ccc(-n4cccn4)cn23)c1)C1CCOCC1 [Compound 207] | 1000 to 10000 nM |
| COc1cccc(-c2cnc3ccc(N(C)C(=O)OC(C)(C)C)cn23)n1 [Compound 16] | 1000 to 10000 nM |
| CNc1ccc2ncc(-c3cccc4c3CN(CCN(C)C)C4=O)n2c1 [Compound 292] | 1000 to 10000 nM |
| CNc1ccc2ncc(-c3cccnc3)n2c1 [Compound 73] | 1000 to 10000 nM |
| CNc1ccc2ncc(-c3cccc(S(=O)(=O)NC)c3)n2c1 [Compound 60, N-methyl-3-(6-(methylamino)imidazo[1,2-a]pyridin-3-yl)benzenesulfonamide] | 1000 to 10000 nM |
| CNc1ccc2ncc(-c3ccc(NC(=O)C4CCOCC4)cn3)n2c1 [Compound 193] | 1000 to 10000 nM |
